Data reported in ChEMBL document CHEMBL6127064, “Discovery of GNE-6893, a Potent, Selective, Orally Bioavailable Small Molecule Inhibitor of HPK1” (ACS Med Chem Lett, 2024).
pEC50, pIC50, pKi: −log10 of the molar value.

Columns and labels:
[1] = Clearance in Sprague-Dawley rat at 0.5 mg/kg, iv measured for 8 hrs by LC-MS/MS analysis; format: ADME, organism-based; details: in vivo
[2] = biological target: T1, Mitogen-activated protein kinase kinase kinase kinase 1 (Homo sapiens, UniProt Q92918); assay: Inhibition of HPK1 in human Jurkat cells assessed as inhibition of anti-CD3/anti-CD28-induced SLP76 phosporylation at Ser376 residue incubated for 30 mins by ELISA; format: cell-based
T1 sequence (Q92918 whole entry): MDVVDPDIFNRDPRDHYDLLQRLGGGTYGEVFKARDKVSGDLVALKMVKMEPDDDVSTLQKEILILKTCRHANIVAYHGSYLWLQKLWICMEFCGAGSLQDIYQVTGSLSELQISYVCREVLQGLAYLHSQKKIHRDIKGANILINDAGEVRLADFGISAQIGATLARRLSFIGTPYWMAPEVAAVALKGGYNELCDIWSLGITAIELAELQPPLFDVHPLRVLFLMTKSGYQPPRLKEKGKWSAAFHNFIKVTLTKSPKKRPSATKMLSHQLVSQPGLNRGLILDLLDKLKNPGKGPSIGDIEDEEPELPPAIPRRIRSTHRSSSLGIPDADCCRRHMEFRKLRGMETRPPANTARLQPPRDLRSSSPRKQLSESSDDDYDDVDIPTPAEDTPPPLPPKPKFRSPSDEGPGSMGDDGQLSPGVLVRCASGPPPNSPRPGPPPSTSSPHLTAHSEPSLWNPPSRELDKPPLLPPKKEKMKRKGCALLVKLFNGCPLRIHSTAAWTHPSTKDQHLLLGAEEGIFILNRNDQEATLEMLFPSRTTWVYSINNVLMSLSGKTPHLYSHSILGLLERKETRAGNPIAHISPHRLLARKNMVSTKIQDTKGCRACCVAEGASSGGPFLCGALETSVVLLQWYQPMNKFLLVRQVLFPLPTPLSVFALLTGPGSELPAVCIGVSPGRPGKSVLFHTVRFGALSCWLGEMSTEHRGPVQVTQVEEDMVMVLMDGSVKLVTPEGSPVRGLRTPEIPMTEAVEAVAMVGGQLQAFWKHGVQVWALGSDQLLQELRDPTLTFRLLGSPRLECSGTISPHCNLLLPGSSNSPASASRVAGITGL

[3] = biological target: T1, Mitogen-activated protein kinase kinase kinase kinase 1; assay: Inhibition of HPK1 in primary human Pan T cells assessed as increase in IL-2 secretion pretreated for 30 mins followed by incubation with anti-CD3/anti-CD28 and measured after 4 hrs by MSD assay; format: cell-based, T cell
[4] = Apparent permeability of the compound across apical to basolateral side in dog MDCK1 cells at 10 uM by LC-MS/MS analysis; format: ADME, cell-based, Canis lupus familiaris; details: MDCK
[5] = Volume of distribution at steady state in Sprague-Dawley rat at 0.5 mg/kg, iv measured for 8 hrs by LC-MS/MS analysis; format: ADME, organism-based; details: in vivo, read-out: Vdss
[6] = Half life in Sprague-Dawley rat at 0.5 mg/kg, iv measured for 8 hrs by LC-MS/MS analysis; format: ADME, organism-based; details: in vivo
[7] = Volume of distribution at steady state in C57BL/6 mouse at 25 mg/kg, po or 1 mg/kg, iv measured for 24 hrs by LC-MS/MS analysis; format: ADME, organism-based; details: in vivo
[8] = Half life in C57BL/6 mouse at 25 mg/kg, po or 1 mg/kg, iv measured for 24 hrs by LC-MS/MS analysis; format: ADME, organism-based; details: in vivo
[9] = Oral bioavailability in C57BL/6 mouse at 25 mg/kg measured for 24 hrs by LC-MS/MS analysis; format: ADME, organism-based; details: mouse, in vivo, po, 25 mg/kg, 24 h, BLD = below limit of detection
[10] = Inhibition of human full length HPK1-T165E/S171E mutant expressed in baculovirus expression system assessed as inhibition of SLP76 phosphorylation using biotinylated SLP76 as substrate preincubated for 30 mins followed by incubation with substrate in presence of ATP and measured for 60 mins by HTRF assay

Row | Compound | clearance [1] [mL/min/kg] | pIC50 [2] | pEC50 [3] | Papp A→B at 10 µM [4] [×10⁻⁶ cm/s] | Vd [5] [L/kg] | half-life [6] [min] | Vdss [7] [L/kg] | half-life [8] [min] | F [9] | pKi [10]
1 | Cc1c(N)cncc1-c1cc2cc(Nc3cc4n(n3)CC(=O)N(C)CC4)ncc2c(N)c1F | 64 | 6.96 | 7.96 | 0.4 | 2.2 | 34.2 | 1.3 | 15.6 | Bld | 
2 | Cc1ccncc1-c1cc2cc(Nc3cc4n(n3)CC(=O)N(C)CC4)ncc2c(N)c1F |  |  |  |  |  |  |  |  |  | 9.80
3 | Cc1ccncc1-c1cc2cc(Nc3cnn([C@@H](C)C#N)c3)ncc2c(N)c1F |  |  |  |  |  |  |  |  |  | 7.49
